Measured values taken from US20120202814A1, “COMPOUNDS WITH DDX3 INHIBITORY ACTIVITY AND USES THEREOF” (UNIVERSITÀ DEGLI STUDI DI SIENA, priority 2009, published 2012).

Tests used:
[1] = biological target: T1, human DDX3 (ATPase activity) (Homo sapiens, UniProt O00571); assay: Human DDX3 ATPase activity assay (luciferase-based luminescence); format: biochemical; conditions: DDX3 ATPase activity; read-out: Ki (μM), apparent equilibrium dissociation constant for the inhibitor to the target enzyme DDX3
T1 construct: made in house; host or cells: E. coli
Procedure: ATPase activity was tested with a luciferase-based luminescence assay (Easylite-Kinase, Perkin Elmer) on 96 wells microtiter plates. Briefly, recombinant purified human DDX3 (50-100 ng) was incubated in a 15 μL total reaction volume with reaction buffer (25 mM TrisHCl pH 7.5, 5 mM MgCl2), in the presence of increasing amounts of ATP and/or different combinations of ATP and the inhibitor to be tested. Reference curves in the absence of inhibitor (giving the 100% of enzymatic activity) and in the absence of enzyme (giving the baseline), were also included in each experiment. Reading was performed with a Microbeta Trilux (Perkin Elmer) luminometer, according to the manufacturer's protocol.
ATPase reactions were performed as described, in the presence of increasing amounts of inhibitor and variable ATP concentrations. Variations of the initial velocities of the reaction as a function of ATP concentrations in the absence or presence of 4 were analyzed with the equation: […]
Variation of the % inhibition as a function of compound FE15 at different ATP concentrations were fitted to the equation for cooperative binding: […]
where Vmax is the apparent maximal rate of the reaction in the absence of the inhibitor, [I] is the variable inhibitor concentration, n is the cooperativity index and Ki(app) is the apparent inhibition constant. Comparatively, fitting was done with the same Eq. (2) where n was kept fixed at the value of 1 (non-cooperativity hypothesis). F test was used to compare the two fittings and p value was calculated.
Human recombinant DDX3 was cloned, expressed and purified as described (Franca et al. Proteins 2007, 67, 1128-37).
The anti-DDX3 activity of the compounds of the invention was evaluated by in vitro ATPase activity assay using the recombinant human DDX3 protein produced in E. coli. The potency of inhibition (Ki) for each molecule was calculated, representing the concentration of the inhibitor able to reduce the DDX3 ATPase activity by 50%

T1 sequence (O00571 whole entry): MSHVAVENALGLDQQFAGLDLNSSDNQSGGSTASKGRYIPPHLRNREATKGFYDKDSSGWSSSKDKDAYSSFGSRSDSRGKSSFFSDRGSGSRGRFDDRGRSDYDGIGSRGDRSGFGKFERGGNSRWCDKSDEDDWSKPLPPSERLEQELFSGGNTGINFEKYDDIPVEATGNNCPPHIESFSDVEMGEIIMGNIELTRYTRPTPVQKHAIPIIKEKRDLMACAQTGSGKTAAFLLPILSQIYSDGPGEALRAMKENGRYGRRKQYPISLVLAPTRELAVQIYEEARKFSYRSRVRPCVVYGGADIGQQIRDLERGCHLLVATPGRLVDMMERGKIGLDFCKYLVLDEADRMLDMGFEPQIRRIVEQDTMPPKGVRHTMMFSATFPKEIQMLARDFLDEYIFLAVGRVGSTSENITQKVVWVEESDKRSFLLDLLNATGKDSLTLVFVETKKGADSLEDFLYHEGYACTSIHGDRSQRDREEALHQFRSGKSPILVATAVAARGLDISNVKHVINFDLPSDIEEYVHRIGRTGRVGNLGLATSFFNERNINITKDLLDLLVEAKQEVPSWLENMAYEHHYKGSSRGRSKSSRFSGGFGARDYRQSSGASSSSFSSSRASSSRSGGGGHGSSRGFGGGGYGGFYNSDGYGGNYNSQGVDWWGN

Question: For `O=[N+]([O-])c1ccc(Cl)c(-c2ccc(/C=N/Nc3nc(Nc4ccc(F)cc4)nc(N4CCOCC4)n3)o2)c1` [FE-56V], which Ki [1] is on record?
Answer: The Ki was 3.6 µM.

Question: For `CC(=O)Nc1ccc(/C(C)=N/Nc2nc(Nc3ccccc3)nc(N3CCOCC3)n2)cc1` [FE-56AI], which Ki [1] is on record?
Answer: The Ki was 2.2 µM.

Question: With `O=C1/C(=C/c2cccc(Br)c2)SC(=S)N1Cc1ccccc1` [Compound 3b, (Z)-5-(3-bromobenzylidene)-3-benzyl-2-thioxothiazolidin-4-one] as the compound, how does the melting point read?
Answer: Its melting point is 112 to 113 °C.

Question: Which melting point does the source give for `CCCCN1C(=O)/C(=C/c2cccc(Br)c2)SC1=S` [Compound 3e, (Z)-5-(3-bromobenzylidene)-3-butyl-2-thioxothiazolidin-4-one] here?
Answer: The melting point was 113 to 115 °C.

Question: With `O=C(Oc1cccc(/C=N/Nc2nc(Nc3ccccc3)nc(N3CCOCC3)n2)c1)c1ccco1` [FE-56U] as the compound, how does the Ki [1] read?
Answer: Its Ki is 6.3 µM.

Question: With `COc1cc(/C=C2\SC(=S)N(CCC(=O)N3CCCc4ccccc43)C2=O)cc(OC)c1OC` [FE-69] as the compound, how does the Ki [1] read?
Answer: The Ki was 0.9 µM.

Question: For `Clc1ccc(/C=N/Nc2nc(Nc3ccccc3)nc(Nc3ccccc3)n2)cc1Cl` [FE-56O], which Ki [1] is on record?
Answer: The Ki was 18 µM.

Question: For `COc1ccc(/C=C2\SC(=S)N(CCC(=O)Nc3ccccc3C(=O)O)C2=O)cc1` [FE-77], which Ki [1] is on record?
Answer: Its Ki is 2 µM.

Question: Which melting point does the source give for `COC(CN1C(=O)/C(=C/c2cccc(Br)c2)SC1=S)OC` [Compound 3d, (Z)-5-(3-bromobenzylidene)-3-(2,2-dimethoxyethyl)-2-thioxothiazolidin-4-one] here?
Answer: Its melting point is 124 to 126 °C.

Question: With `O=C(CCN1C(=O)C/C(=C\c2cccc(Br)c2)C1=O)Nc1ccccc1O` [Compound 6b, 3-((E)-3-(3-bromobenzylidene)-2,5-dioxopyrrolidin-1-yl)-N-(2-hydroxyphenyl)propanamide] as the compound, how does the Ki [1] read?
Answer: The Ki was 28 µM.

Question: Which melting point does the source give for `O=C1/C(=C/c2ccco2)SC(=S)N1CCc1ccccc1` [Compound 3g, (Z)-5-((furan-2-yl)methylene)-3-phenethyl-2-thioxothiazolidin-4-one] here?
Answer: Its melting point is 150 to 152 °C.

Question: For `Cc1ccc(Nc2nc(N/N=C/c3ccccc3O)nc(N3CCOCC3)n2)cc1Cl` [FE-56AM], which Ki [1] is on record?
Answer: The Ki was 1.6 µM.

Question: Which Ki [1] does the source give for `O=C1Nc2ccccc2/C1=N\Nc1nc(Nc2cccc(Cl)c2)nc(N2CCOCC2)n1` [FE-56AD] here?
Answer: Its Ki is 2 µM.

Question: With `COc1ccc(Nc2nc(NCc3ccco3)nc(N/N=C/c3ccc(-c4ccccc4[N+](=O)[O-])o3)n2)cc1` [FE-56Z] as the compound, how does the Ki [1] read?
Answer: The Ki was 1.9 µM.

Question: Which Ki [1] does the source give for `COc1cc(/C=C2\SC(=S)N(CCC(=O)Nc3ccccc3O)C2=O)cc(OC)c1OC` [FE-74] here?
Answer: The Ki was 0.1 µM.

Question: Which Ki [1] does the source give for `Clc1ccccc1-c1ccc(/C=N/Nc2nc(Nc3ccccc3)nc(N3CCOCC3)n2)o1` [FE-56AA] here?
Answer: The Ki was 3.2 µM.

Question: For `O=C1/C(=C/c2ccc3ccccc3c2)SC(=S)N1CCc1ccccc1` [Compound 3i, (Z)-5-((naphthalen-3-yl)methylene)-3-phenethyl-2-thioxothiazolidin-4-one], which melting point is on record?
Answer: The melting point was 174 to 176 °C.

Question: For `Oc1ccc(/C=N/Nc2nc(Nc3ccccc3)nc(Nc3ccccc3)n2)c(O)c1` [FE-56I], which Ki [1] is on record?
Answer: The Ki was 33 µM.

Question: Which Ki [1] does the source give for `OCCc1cc(Nc2ccc(F)cc2)nc(N/N=C/c2ccccc2O)n1` [Compound 22, 2-((2-(4-(4-Fluorophenylamino)-6-(2-hydroxyethyl)pyrimidin-2-yl)hydrazono)methyl)phenol] here?
Answer: The Ki was 9 µM.

Question: With `Cc1ccc(Nc2nc(N/N=C3/C(=O)Nc4ccccc43)nc(N3CCOCC3)n2)cc1Cl` [FE-56AH] as the compound, how does the Ki [1] read?
Answer: The Ki was 3.2 µM.

Question: Which Ki [1] does the source give for `CC(=O)Nc1ccc(/C(C)=N/Nc2nc(NCc3ccccc3)nc(N3CCOCC3)n2)cc1` [FE-56AN] here?
Answer: Its Ki is 0.5 µM.

Question: With `O=C(NCCN1C(=O)/C(=C/c2cccc(Br)c2)SC1=S)c1ccccc1O` [Compound 3j, N-(2-((Z)-5-(3-Bromobenzylidene)-4-oxo-2-thioxothiazolidin-3-yl)ethyl)-2-hydroxybenzamide] as the compound, how does the Ki [1] read?
Answer: The Ki was 4.2 µM.

Question: For `O=C(CCN1C(=O)/C(=C/c2ccc3c(c2)OCO3)SC1=S)Nc1ccccc1C(=O)O` [FE-70], which Ki [1] is on record?
Answer: The Ki was 0.4 µM.

Question: Which Ki [1] does the source give for `O=C(NCCN1C(=O)/C(=C/c2cccc(F)c2)SC1=S)c1ccccc1O` [Compound 3k, N-(2-((Z)-5-(3-Fluorobenzylidene)-4-oxo-2-thioxothiazolidin-3-yl)ethyl)-2-hydroxy-benzamide] here?
Answer: Its Ki is 4.3 µM.
